The text below walks through data of patent US5552405A, “Substituted pyrrolidine derivatives as HIV protease inhibitors” (Bio-Mega/Boehringer Ingelheim Research, Inc., priority 1995, dated 1996).

Assay [1] deals with T1, HIV protease (Human immunodeficiency virus type 1 group M subtype B, UniProt P04585).
T1 construct: HIV protease was expressed in E. coli; made in house; host or cells: E. coli
The assay can be described thus: Recombinant HIV Protease HPLC Assay. Particulars: recombinant HIV protease expressed in E. coli; substrate VSFNFPQITL-NH2; pH 5.5; 37°, 30 min; read-out: IC50, concentration of the test compound which causes a 50% inhibition of the HIV-protease. The assay is classed as biochemical. An excerpt: The procedure is based on the capacity of the test compound to inhibit enzymatic cleavage by HIV protease of a decapeptide (the substratel having an amino acid sequence which includes a known HIV protease cleavage site of a HIV polyprotein; see H. G. Krausslich et al., Proc. Natl. Acad. Sci. U.S.A., 86, 807 (1989). Details of this assay together with the results obtained for exemplified compounds of formula 1 are described in the examples hereinafter.
Enzyme: HIV protease was expressed in E. coli {construct pBRT1 prt^+, see W. G. Farmerie et al., Science, 236, 305 (1987)}, according to the following protocol: Unless stated otherwise, all solutions are aqueous solutions.
E. coli cells containing the pBRT1 prt^+ plasmid were used to inoculate a seed culture media composed of Luria-Bertani Broth containing 100 μg/mL of ampicillin. Flasks were incubated at 37° under agitation for 17 h. Production flasks containing sterile M9 broth, supplemented with 100 μg/mL of ampicillin, were inoculated at a level of 1% (v/v) using the seed culture described above. Total volume in each production flask was 500 mL in a 2 L Erlenmeyer flask. Flasks were incubated at 37° under agitation until a cell concentration corresponding to an optical density (λ=540 μm) of 0.6 was reached (no dilution). This time span was routinely 3-4 h. Flasks were then supplemented with 5 mM isopropylthiogalactoside (IPTG, Research Organics, Cleveland, Ohio, USA) and incubation was continued until the cell concentration reached an optical density of 0.2 at 16-fold dilution. Flasks were then supplemented with 1 mM phenylmethylsulfonyl fluoride (PMSF) and rapidly chilled to 4°. The bacterial cells were recovered by centrifugation at 4°. The wet pellet was stored at -70°.
All steps below were perfomed at 4° unless otherwise indicated. Thawed cells were mixed with buffer A {50 mM tris(hydroxymethyl)aminoethane HCl (Tris-HCl, pH 7.4); 0.6 mM ethylenediaminetetraacetic acid (EDTA); 0.375M NaCl, 0.2% Nonidet P-40® (BDH Chemicals Ltd., Poole, UK); 1 mM PMSF}, at a ratio of one part cells to nine parts buffer A. Diatomaceous earth (Celite 545® John Manville, Lompoc, Calif. U.S.A.) was added at a ratio of two parts to one part of wet cell weight. The resulting slurry was homogenized at high speed (ca. 20,000 rpm) on a Waring® industrial blender for 8×15 sec. pulses. Cell debris/Celite® was collected by centrifugation and the resulting pellet was extracted with 4.5 parts of buffer A to one part wet solids using the homogenization procedure described above. Supernatants from both homogenization steps were combined and soluble protein was precipitated by the addition of solid (NH4)2 SO4 to yield a final concentration of 75% saturation. This mixture was agitated for 60 min and the precipitate was recovered by centrifugation. The resulting pellet was suspended in buffer B {50 mM Tris-HCl, pH 8; 30 mM NaCl; 1 mM DL-dithiothreitol (DTT); 1 mM EDTA; mM PMSF; 10% glycerol}, and dialyzed for 18 h against the same buffer.
An aliquot of the dialyzed extract containing 150 mg of the protein was loaded onto a Sephadex A25® anion exchange column (Pharmacia, Uppsala, Sweden) with bed dimensions of 70 cm length and 2.5 cm diameter. The sample was eluted isocratically with buffer B at a linear flow rate of 10 cm/h. Fractions containing HIV protease activity (see below for assay description) were combined, and soluble protein was precipitated by the addition of saturated aqueous (NH4)2 SO4 to yield a total (NH4)2 SO4 concentration of 85% saturation. Precipitated protein was removed by centrifugation and the resulting pellet was dissolved in buffer C {50 mM 2-(4-morpholino)ethanesulfonic acid (MES), pH 5.5; 150 mM NaCl; 1 mM DTT; 1 mM EDTA; 10% glycerol}. This preparation was dialyzed for 18 h against buffer C, and then frozen at -70°. All crude extracts were purified by chromatography in aliquots containing 150 mg of protein in the same manner as described above. […]

The test system of assay [2] is HIV (H9/HTLV-IIIB) in HTLV-I transformed C8166 cells. The assay can be described thus: plaque assay, inhibition of HIV (H9/HTLV-IIIB) syncytia formation in C8166 cells. The assay is classed as cell-based. The note with it: Human immunodeficiency virus 1, fifty times TCID50, 37°, 72 h, read-out: EC50, concentration of the test compound which causes a 50% inhibition of syncytia formation. An excerpt:
Typical of such procedures are those described by S. Harada and N. Yamamoto, Jpn. J. Cancer Res. (Gann), 76, 432 (1985), and S. Harada et al., Science, 229, 563 (1985). An assay based on the latter procedures is described in the examples hereinafter.
The following protocol, used for screening antiviral effects of the compounds of formula 1, is adapted from a plaque assay utilizing HTLV-I transformed cells, previously reported by Harada et al., supra. HTLV-I transformed cells are used because of the rapidity with which HIV will replicate in the cells.
1. The test compound is dissolved in dimethylsulfoxide to a concentration of 5 mg/mL. The resultant solution can be stored at 4° until use.
2. The resultant solution is diluted in RPMI 1640 (Gibco Laboratories, St. Lawrence, Mass., USA) to four times (4×) the final concentration which is to be tested. Once diluted in RPMI 1640, the solution is used in the cell culture assay within 4 h.
3. The 4×solution (50 μL) is added to triplicate wells of a 96 well flat bottomed microtiter plate. RPMI (50 μL) also is added to control wells.
4. C8166 cells (5×10^4) in […] of HEPES-buffered RPMI 1640 (pH=7.2), 10% heat inactivated fetal calf serum (FCS), […] gentamicin (complete media) are added to all wells.
5. Fifty times TCID50 of H9/HTLV-IIIB stock (stored in liquid nitrogen as cell culture supernatant in 50% FCS) in 100 μL of complete media is added to all wells. Infectious titer of virus stocks are as previously determined by end point dilution on C8166 cells. Titer of stocks are stable for 6-12 months when stored at -193°.
6. Microtiter plates are then placed on level shelves of a 37°, 5% CO2 humidified incubator for 72 h.
7. Plates are then removed and centers of syncytia are counted in each well by low power phase contrast light microscopy. […] Control wells should have between 25 and 75 centers of syncytia per well.
8. Percent inhibition of syncytia formation is calculated by the formula: [formula]
The concentration of the test compound which causes a 50% inhibition of syncytia formation, i.e. the EC50, is determined by using the technique of serial dilution of the working solution at step 3 and graphically plotting the observed percent inhibition of syncytia formation against the various concentrations of the test compound.

On to `CC(C)(C)NC(=O)[C@@H]1C[C@@H](Cc2ccccc2)CN1C[C@@H](O)[C@H](Cc1ccccc1)NC(=O)[C@H](CC(N)=O)NC(=O)OCc1ccccc1` [Table I Entry 8, 4(R)-Benzyl-1-{3(S)-{{N-(benzyloxycarbonyl)asparaginyl}amino}-2(R)-hydroxy-4-phenylbutyl}-N-tert-butylpyrrolidine-2(S)-carboxamide], for which, in assay [1], the IC50 was 0.048 µM. The EC50 in assay [2] was found to be 0.7 µM.
For `CC(C)(C)NC(=O)[C@@H]1C[C@H](Cc2ccccc2)CN1C[C@@H](O)[C@H](Cc1ccccc1)NC(=O)[C@H](CC(N)=O)NC(=O)OCc1ccccc1` [Table I Entry 9, 4(S)-Benzyl-1-{3(S)-{{N-(benzyloxycarbonyl)asparaginyl}amino}-2(R)-hydroxy-4-phenylbutyl}-N-tert-butylpyrrolidine-2(S)-carboxamide], the IC50 in assay [1] was 0.78 µM. Moreover, in assay [2], the EC50 was 4 µM.
In the same order, the values of `CC(C)[C@H](NC(=O)c1ccc2ccccc2n1)C(=O)N[C@@H](Cc1ccccc1)[C@H](O)CN1C[C@H](SCc2cccnc2)C[C@H]1C(=O)NC(C)(C)C` [Table I Entry 11, N-tert-butyl-1-{2(R)-hydroxy-4-phenyl-3(S)-{{N-(2-quinolinylcarbonyl)valyl}amino}butyl}-4(R)-{(3-pyridinylmethyl)thio}pyrrolidine-2(S)-carboxamide] are 0.012 µM and 0.48 µM.
Taken in the same sequence, the figures for `Cc1cc(O[C@@H]2C[C@@H](C(=O)NC(C)(C)C)N(C[C@@H](O)[C@H](Cc3ccccc3)NC(=O)[C@@H](NC(=O)c3ccc4ccccc4n3)C(C)C)C2)nc(C)n1` [Table I Entry 12, N-tert-butyl-1-{2(R)-hydroxy-4-phenyl-3(S)-{{N-(2-quinolinylcarbonyl)valyl}amino}butyl}-4(R)-{(2,6-dimethyl-4-pyrimidinyl)oxy}pyrrolidine-2(S)-carboxamide] were 0.0094 µM and 0.39 µM.
